What was measured:
[1] = target: T1, human ALX receptor (Homo sapiens, UniProt P25090); assay: Intracellular calcium measurements (FLIPR), agonistic activity in HEK293-hALXR-Gα16 cells; type: cell-based; details: Fluo-4 calcium FLIPR, normalized to WKYMVm 10 nM
T1 construct: expressed in transfected cells; host or cells: HEK293 (HEK293-hALXR-Gα16)
T1 sequence (P25090 1-351): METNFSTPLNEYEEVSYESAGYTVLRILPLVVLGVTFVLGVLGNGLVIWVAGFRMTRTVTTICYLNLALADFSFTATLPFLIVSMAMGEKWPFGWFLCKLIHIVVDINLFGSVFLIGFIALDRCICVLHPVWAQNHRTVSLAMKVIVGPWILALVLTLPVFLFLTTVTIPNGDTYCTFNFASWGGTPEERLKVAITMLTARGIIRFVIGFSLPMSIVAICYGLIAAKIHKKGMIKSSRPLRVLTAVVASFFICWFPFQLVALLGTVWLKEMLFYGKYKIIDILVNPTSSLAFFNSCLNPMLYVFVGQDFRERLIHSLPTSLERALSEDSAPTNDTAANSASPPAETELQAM
Experimental: (§1) The ALX receptor and FPRL2 agonistic activities of the compounds of formula (I) are determined in accordance with the following experimental method.
(§2) Intracellular Calcium Measurements:
Cells expressing recombinant human ALX receptor and the G-protein Gα16 (HEK293-hALXR-Gα16) were grown to 80% confluency in Growing Medium (GM). Cells were detached from culture dishes with a cell dissociation buffer (Invitrogen, 13151-014), and collected by centrifugation at 1,000 rpm at rt for 5 min in Assay Buffer (AB) (equal parts of Hank's BSS (Gibco, 14065-049) and DMEM without Phenol Red (Gibco, 11880-028)). After 60 min incubation at 37° C. under 5% CO2 in AB supplemented with 1 μM Fluo-4 (AM) (Invitrogen, F14202), and 20 mM HEPES (Gibco, 15630-056), the cells were washed and resuspended in AB. They were then seeded onto 384-well FLIPR assay plates (Greiner, 781091) at 50′000 cells in 70 μl per well and sedimented by centrifugation at 1,000 rpm for 1 min. Stock solutions of test compounds were made up at a concentration of 10 mM in DMSO, and serially diluted in AB to concentrations required for activation dose response curves. WKYMVm (Phoenix Peptides) was used as a reference agonist. FLIPR384 or FLIPR Tetra instruments (Molecular Devices) were operated according to the manufacturer's standard instructions, adding 4 μl of test compound dissolved at 10 mM in DMSO and diluted prior to the experiment in assay buffer to obtain the desired final concentration. Changes in fluorescence were monitored before and after the addition of test compounds at lex=488 nm and lem=540 nm. Emission peak values above base level after compounds addition were exported after base line subtraction. Values were normalized to high-level control (WKYMVm compound, 10 nM final concentration) after subtraction of the base line value (AB addition).

[2] = target: T2, human FPRL2 (Homo sapiens, UniProt P25089); assay: Intracellular calcium measurements (FLIPR), agonistic activity in HEK293-hFPRL2-Gα16 cells; type: cell-based; details: Fluo-4 calcium FLIPR, normalized to GLY14-Humanin 100 nM
T2 construct: expressed in transfected cells; host or cells: HEK293 (HEK293-hFPRL2-Gα16)
T2 sequence (P25089 1-353): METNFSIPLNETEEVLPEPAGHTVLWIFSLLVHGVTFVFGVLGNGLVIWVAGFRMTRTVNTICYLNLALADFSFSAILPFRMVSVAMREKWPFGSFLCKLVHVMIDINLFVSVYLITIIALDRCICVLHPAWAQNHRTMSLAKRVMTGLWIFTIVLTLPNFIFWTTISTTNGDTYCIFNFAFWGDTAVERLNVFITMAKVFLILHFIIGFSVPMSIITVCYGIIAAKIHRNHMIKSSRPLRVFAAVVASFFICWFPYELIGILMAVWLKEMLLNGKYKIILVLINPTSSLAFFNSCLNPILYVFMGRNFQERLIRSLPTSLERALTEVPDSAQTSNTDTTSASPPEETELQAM
Experimental: as §1, §2
Cells expressing recombinant human FPRL2 and the G-protein Gα16 (HEK293-hFPRL2-Gα16) were grown to 80% confluency in Growing Medium (GM). […] Stock solutions of test compounds were made up at a concentration of 10 mM in DMSO, and serially diluted in AB to concentrations required for activation dose response curves. Gly14-Humanin (Humanin peptide with replacement of Serine by Glycine at position 14, Phoenix Peptides) was used as a reference agonist. FLIPR384 or FLIPR Tetra instruments (Molecular Devices) were operated according to the manufacturer's standard instructions, adding 4 μl of test compound dissolved at 10 mM in DMSO and diluted prior to the experiment in assay buffer to obtain the desired final concentration. Changes in fluorescence were monitored before and after the addition of test compounds at lex=488 nm and lem=540 nm. Emission peak values above base level after compounds addition were exported after base line subtraction. Values were normalized to high-level control (GLY14-Humanin compound, 100 nM final concentration) after subtraction of the base line value (AB addition).

Row | EC50 [1] | EC50 [2] | SMILES
1 | 1.5 nM | 5250 nM | O=C(NCC1CCCO1)C1C(C(=O)Nc2ccc(Br)cc2)C2CCC1C21CC1 (mixture of isomers) [Example 104, (5R*)—N^5-(4-Bromophenyl)-(6R*)—N^6-(tetrahydrofuran-2-yl-methyl)-(4S*,7R*)-[4,7-ethylene-spiro[2.4]heptane]-5,6-dicarboxamide]
2 | 71 nM | 613 nM | CC1CCC(NC(=O)C2C(C(=O)NCCCCN3CCCC3)C3C=CC2C32CC2)CC1 (mixture of isomers) [Example 126, (5R*)—N^5-(4-Methyl-cyclohex-1-yl)-(6R*)—N^6-(4-pyrrolidin-1-yl-butyl)-(4S*,7R*)-[4,7-ethenylene-spiro[2.4]heptane]-5,6-dicarboxamide]
3 | 898 nM | 79 nM | CC(NC(=O)C1C(C(=O)NCCCCN2CCCC2)C2C=CC1C21CC1)c1ccc(Br)cc1 (mixture of isomers) [Example 132, (5R*)—N^5-(1-(4-Bromophenyl)-ethyl)-(6R*)—N^6-(4-pyrrolidin-1-yl-butyl)-(4S*,7R*)-[4,7-ethenylene-spiro[2.4]heptane]-5,6-dicarboxamide]
4 | 87 nM | 2600 nM | CC1(C(=O)NCC2C(C(=O)Nc3ccc(Br)cc3)C3C=CC2C32CC2)CC1(Cl)Cl (mixture of isomers) [Example 165, (5R*)—N^5-(4-Bromo-phenyl)-(6R*)-6-{[(2,2-dichloro-1-methyl-cyclopropylcarbonyl)-amino]-methyl}-(4S*,7R*)-[4,7-ethenylene-spiro[2.4]heptane]-5-carboxamide]
5 | 0.2 nM | 2000 nM | O=C(NC1CCNCC1)[C@H]1[C@H](C(=O)Nc2ccc(Br)cc2)[C@@H]2C=C[C@H]1C21CC1 (racemic) [Example 3, (5R*)—N^5-(4-Bromophenyl)-(6R*)—N^6-(piperidin-4-yl)-(4S*,7R*)-[4,7-ethenylene-spiro[2.4]heptane]-5,6-dicarboxamide]
6 | 0.24 nM | 5310 nM | CC(C)CNC(=O)[C@H]1[C@H](C(=O)Nc2ccc(Br)cc2)[C@@H]2C=C[C@H]1C21CC1 (racemic) [Example 4, (5R*)—N^5-(4-Bromophenyl)-(6R*)—N^6-(3-isobutyl)-(4S*,7R*)-[4,7-ethenylene-spiro[2.4]heptane]-5,6-dicarboxamide]
7 | 0.55 nM | 413 nM | NCc1cccc(CNC(=O)[C@H]2[C@H](C(=O)Nc3ccc(Br)cc3)[C@@H]3C=C[C@H]2C32CC2)c1 (racemic) [Example 7, (5R*)—N^5-(4-Bromophenyl)-(6R*)—N^6-((3-aminomethyl-phenyl)-methyl)-(4S*,7R*)-[4,7-ethenylene-spiro[2.4]heptane]-5,6-dicarboxamide]
8 | 0.82 nM | 2600 nM | O=C(NCC1CCNCC1)[C@H]1[C@H](C(=O)Nc2ccc(Br)cc2)[C@@H]2C=C[C@H]1C21CC1 (racemic) [Example 8, (5R*)—N^5-(4-Bromophenyl)-(6R*)—N^6-(4-piperidinyl-methyl)-(4S*,7R*)-[4,7-ethenylene-spiro[2.4]heptane]-5,6-dicarboxamide]
9 | 0.98 nM | 726 nM | CC(C)(CN)CNC(=O)[C@H]1[C@H](C(=O)Nc2ccc(Br)cc2)[C@@H]2C=C[C@H]1C21CC1 (racemic) [Example 10, (5R*)—N^5-(4-Bromophenyl)-(6R*)—N^6-(2,2-dimethyl-3-amino-propyl)-(4S*,7R*)-[4,7-ethenylene-spiro[2.4]heptane]-5,6-dicarboxamide]
10 | 1 nM | 329 nM | CCN(CC)CCCCNC(=O)[C@H]1[C@H](C(=O)Nc2ccc(Br)cc2)[C@@H]2C=C[C@H]1C21CC1 (racemic) [Example 11, (5R*)—N^5-(4-Bromophenyl)-(6R*)—N^6-(4-(N,N-diethyl-amino)-butyl)-(4S*,7R*)-[4,7-ethenylene-spiro[2.4]heptane]-5,6-dicarboxamide]
11 | 1.3 nM | 4400 nM | O=C(NC1CCCC1)[C@H]1[C@H](C(=O)Nc2ccc(Br)cc2)[C@@H]2C=C[C@H]1C21CC1 (racemic) [Example 15, (5R*)—N^5-(4-Bromophenyl)-(6R*)—N^6-(cyclopentyl)-(4S*,7R*)-[4,7-ethenylene-spiro[2.4]heptane]-5,6-dicarboxamide]
12 | 1.4 nM | 3920 nM | NCCCNC(=O)[C@H]1[C@H](C(=O)Nc2ccc(Br)cc2)[C@@H]2C=C[C@H]1C21CC1 (racemic) [Example 16, (5R*)—N^5-(4-Bromophenyl)-(6R*)—N^6-(3-amino-propyl)-(4S*,7R*)-[4,7-ethenylene-spiro[2.4]heptane]-5,6-dicarboxamide]
13 | 1.8 nM | 2010 nM | CCOCCCNC(=O)[C@H]1[C@H](C(=O)Nc2ccc(Br)cc2)[C@@H]2C=C[C@H]1C21CC1 (racemic) [Example 17, (5R*)—N^5-(4-Bromophenyl)-(6R*)—N^6-(3-ethoxy-propyl)-(4S*,7R*)-[4,7-ethenylene-spiro[2.4]heptane]-5,6-dicarboxamide]
14 | 2.4 nM | 2480 nM | O=C(NCC(F)(F)F)[C@H]1[C@H](C(=O)Nc2ccc(Br)cc2)[C@@H]2C=C[C@H]1C21CC1 (racemic) [Example 19, (5R*)—N^5-(4-Bromophenyl)-(6R*)—N^6-(2,2,2-trifluoro-ethyl)-(4S*,7R*)-[4,7-ethenylene-spiro[2.4]heptane]-5,6-dicarboxamide]
15 | 2.7 nM | 2860 nM | O=C(NCCF)[C@H]1[C@H](C(=O)Nc2ccc(Br)cc2)[C@@H]2C=C[C@H]1C21CC1 (racemic) [Example 20, (5R*)—N^5-(4-Bromophenyl)-(6R*)—N^6-(2-fluoro-ethyl)-(4S*,7R*)-[4,7-ethenylene-spiro[2.4]heptane]-5,6-dicarboxamide]
16 | 2.8 nM | 1690 nM | CNCCNC(=O)[C@H]1[C@H](C(=O)Nc2ccc(Br)cc2)[C@@H]2C=C[C@H]1C21CC1 (racemic) [Example 21, (5R*)—N^5-(4-Bromophenyl)-(6R*)—N^6-(2-(N-methyl-amino)-ethyl)-(4S*,7R*)-[4,7-ethenylene-spiro[2.4]heptane]-5,6-dicarboxamide]
17 | 3.3 nM | > 25000 nM | O=C(N[C@H]1CC[C@H](O)CC1)[C@H]1[C@H](C(=O)Nc2ccc(Br)cc2)[C@@H]2C=C[C@H]1C21CC1 (racemic) [Example 23, (5R*)—N^5-(4-Bromophenyl)-(6R*)—N^6-(4-hydroxy-cyclohexyl)-(4S*,7R*)-[4,7-ethenylene-spiro[2.4]heptane]-5,6-dicarboxamide]

Row | SMILES | EC50 [1] | EC50 [2]
18 | CC(C)(C)OC(=O)N1CCCC(CCNC(=O)C2C(C(=O)Nc3ccc(Br)cc3)C3C=CC2C32CC2)C1 (mixture of isomers) [Example 99, (5R*)—N^5-(4-Bromophenyl)-(6R*)—N^6-(2-(N-tert-butoxycarbonyl-piperidin-3-yl)-ethyl)-(4S*,7R*)-[4,7-ethenylene-spiro[2.4]heptane]-5,6-dicarboxamide] | 552 nM | 5490 nM

Source: US8563714B2, “Bridged spiro [2.4] heptane derivatives as ALX receptor and/or FPRL2 agonists” (Actelion Pharmaceuticals Ltd., priority 2009, dated 2013)
